# Assay results from US20150011751A1, “NOVEL TRIAZINE DERIVATIVE” (CARNA BIOSCIENCES, INC., priority 2012, published 2015).
# Target: Dephosphorylated BTK (Homo sapiens, UniProt Q06187)
# Test: Test of activity inhibition against dephosphorylated BTK (mobility shift assay)
# Experimental: Kinase activity was measured by a mobility shift assay (MSA) method using QuickScout Screening Assist (trademark) MSA (commercially available kit, manufactured by Carna Biosciences, Inc.). FITC-labeled SRCtide peptide supplied with the kit was used as a substrate of a kinase reaction.
# IC50 value was calculated by regression analysis of the inhibition ratio and the test compound concentration (logarithm).
# Dephosphorylated BTK was obtained by adding a A protein phosphatase (Code No. P0753S, manufactured by New England BioLabs Inc.) and MnCl2 to a biotinylated BTK protein BTN-BTK (manufactured by Carna Biosciences, Inc.) enzyme solution so as to adjust the concentrations to 10 U/μg and 2 mM, respectively, reacting the mixture at 4° C. overnight, removing the A protein phosphatase through anti-[sequence]-tag antibody agarose gel chromatography, and performing buffer exchange using 10DG Desalting Column.
# Chain of Dephosphorylated BTK (Q06187 whole entry): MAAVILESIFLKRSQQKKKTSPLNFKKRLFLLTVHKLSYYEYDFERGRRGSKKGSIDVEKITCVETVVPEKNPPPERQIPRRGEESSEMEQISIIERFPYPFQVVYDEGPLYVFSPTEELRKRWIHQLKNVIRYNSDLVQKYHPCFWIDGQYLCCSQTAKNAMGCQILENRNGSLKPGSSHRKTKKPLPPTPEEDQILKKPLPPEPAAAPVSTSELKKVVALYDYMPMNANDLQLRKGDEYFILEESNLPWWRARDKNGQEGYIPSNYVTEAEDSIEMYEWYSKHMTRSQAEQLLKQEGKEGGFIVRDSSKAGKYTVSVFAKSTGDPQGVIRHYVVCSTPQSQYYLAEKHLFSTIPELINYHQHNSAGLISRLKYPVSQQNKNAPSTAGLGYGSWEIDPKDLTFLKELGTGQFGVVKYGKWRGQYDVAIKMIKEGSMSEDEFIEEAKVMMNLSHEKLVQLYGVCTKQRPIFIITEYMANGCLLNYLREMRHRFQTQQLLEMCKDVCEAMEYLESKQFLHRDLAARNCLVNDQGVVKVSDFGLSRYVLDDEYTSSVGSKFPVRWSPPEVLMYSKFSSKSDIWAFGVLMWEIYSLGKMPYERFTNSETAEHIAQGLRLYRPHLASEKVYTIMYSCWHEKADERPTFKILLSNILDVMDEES
row,SMILES,IC50 [nM]
1,"CC(=O)N1CCN(c2ccc(Nc3nc(N)nc(-c4cccc(N5CCc6cc(C7CC7)cc(F)c6C5=O)c4CO)n3)cc2)CC1 [Example 220, 2-[3-(4-{[4-(4-Acetyl-piperazin-1-yl)phenyl]amino}-6-amino-1,3,5-triazin-2-yl)-2-(hy-droxymethyl)phenyl]-6-cyclopropyl-8-fluoro-3,4-dihydroisoquinolin-1(2H)-one]",2.3
2,"Nc1nc(Nc2cnn(C3CCNCC3)c2)nc(-c2cccc(N3CCc4cc(C5CC5)cc(F)c4C3=O)c2CO)n1 [Example 223, 2-[3-(4-Amino-6-{[1-(piperidin-4-yl)-1H-py-razol-4-yl]amino}-1,3,5-triazin-2-yl)-2-(hy-droxymethyl)phenyl]-6-cyclopropyl-8-fluoro-3,4-dihydro-isoquinolin-1(2H)-one]",0.6
3,"Nc1nc(Nc2cnn(CCCO)c2)nc(-c2cccc(N3CCc4cc(C5CC5)cc(F)c4C3=O)c2CO)n1 [Example 225, 2-[3-(4-Amino-6-{[1-(3-hydroxypropyl)-1H-py-razol-4-yl]amino}-1,3,5-triazin-2-yl)-2-(hy-droxymethyl)phenyl]-6-cyclopropyl-8-fluoro-3,4-dihydro-isoquinolin-1(2H)-one]",1.2
4,"Nc1nc(Nc2ccc(N3CCOCC3)cc2)nc(-c2cccc(N3CCc4c(sc5c4CCCC5)C3=O)c2CO)n1 [Example 227, 2-(3-{4-Amino-6-[(4-morpho-linophenyl)amino]-1,3,5-triazin-2-yl}-2-(hydroxymethyl)phe-nyl)-3,4,5,6,7,8-hexa-hydrobenzo[4,5]thieno [2,3-c]pyridin-1(2H)-one]",3.5
5,"CNC(=O)c1cc(Nc2nc(N)nc(-c3cccc(N4CCc5cc(C6CC6)cc(F)c5C4=O)c3CO)n2)cn1C [Example 232, 4-({4-Amino-6-[3-(6-cyclo-propyl-8-fluoro-1-oxo-3,4-dihydroisoquinolin-2(1H)-yl)-2-(hy-droxymethyl)phenyl]-1,3,5-triazin-2-yl}ami-no)-N,1-dimethyl-1H-pyrrole-2-carboxamide]",0.7
6,"Nc1nc(Nc2cnn([C@H]3CCOC3)c2)nc(-c2cccc(N3CCc4cc(C5CC5)cc(F)c4C3=O)c2CO)n1 [Example 235, (S)-2-[3-(4-Amino-6-{[1-(tetrahydrofuran-3-yl)-1H-pyrazol-4-yl]amino}-1,3,5-triazin-2-yl)-2-(hydroxymeth-yl)phenyl]-6-cyclopropyl-8-fluoro-3,4-dihydro-isoquinolin-1(2H)-one]",0.8
7,"Nc1nc(Nc2cnn([C@@H]3CCOC3)c2)nc(-c2cccc(N3CCc4cc(C5CC5)cc(F)c4C3=O)c2CO)n1 [Example 236, (R)-2-[3-(4-Amino-6-{[1-(tetrahydrofuran-3-yl)-1H-pyrazol-4-yl]amino}-1,3,5-triazin-2-yl)-2-(hydroxymeth-yl)phenyl]-6-cyclopropyl-8-fluoro-3,4-dihydro-isoquinolin-1(2H)-one]",0.8
8,"Nc1nc(Nc2cnn(CCN3CCOCC3)c2)nc(-c2cccc(N3CCc4cc(C5CC5)cc(F)c4C3=O)c2CO)n1 [Example 237, 2-[3-(4-Amino-6-{[1-(2-morpholinoethyl)-1H-pyrazol-4-yl]amino}-1,3,5-triazin-2-yl)-2-(hydroxymethyl)phenyl]-6-cyclopropyl-8-fluoro-3,4-dihydro-isoquinolin-1(2H)-one]",0.8
9,"Nc1nc(Nc2cnn(C3CCCC3)c2)nc(-c2cccc(N3CCc4cc(C5CC5)cc(F)c4C3=O)c2CO)n1 [Example 239, 2-(3-{4-Amino-6-[(1-cyclo-pentyl-1H-pyrazol-4-yl)amino]-1,3,5-tri-azin-2-yl}-2-(hydroxy-methyl)phenyl)-6-cyclo-propyl-8-fluoro-3,4-dihydroisoquinolin-1 (2H)-one]",0.5
10,"Nc1nc(Nc2cnn(CC(F)(F)F)c2)nc(-c2cccc(N3CCc4cc(C5CC5)cc(F)c4C3=O)c2CO)n1 [Example 240, 2-[3-(4-Amino-6-{[1-(2,2,2-trifluoroethyl)-1H-pyrazol-4-yl]amino}-1,3,5-triazin-2-yl)-2-(hydroxymethyl)phe-nyl]-6-cyclopropyl-8-fluoro-3,4-dihydroiso-quinolin-1(2H)-one]",1.1
11,"Nc1nc(Nc2ccc(N3CCOCC3)c(F)c2)nc(-c2cccc(N3CCc4cc(C5CC5)cc(F)c4C3=O)c2CO)n1 [Example 242, 2-(3-{4-Amino-6-[(3-fluoro-4-morpholinophe-nyl)amino]-1,3,5-tri-azin-2-yl}-2-(hydroxymeth-yl)phenyl)-6-cyclo-propyl-8-fluoro-3,4-di-hydroisoquinolin-1(2H)-one]",1.5
12,"Nc1nc(Nc2cccc(N3CCOCC3)c2)nc(-c2cccc(N3CCc4cc(C5CC5)cc(F)c4C3=O)c2CO)n1 [Example 243, 2-(3-{4-Amino-6-[(3-morpho-linophenyl)amino]-1,3,5-triazin-2-yl}-2-(hydroxymethyl)phe-nyl)-6-cyclopropyl-8-fluoro-3,4-dihydroiso-quinolin-1(2H)-one]",2.3
13,"Nc1nc(Nc2ccc(N3CCCC3)cc2)nc(-c2cccc(N3CCc4cc(C5CC5)cc(F)c4C3=O)c2CO)n1 [Example 244, 2-[3-(4-Amino-6-{[4-(pyr-rolidin-1-yl)phenyl]amino}-1,3,5-triazin-2-yl)-2-(hydroxymeth-yl)phenyl]-6-cyclopro-pyl-8-fluoro-3,4-dihy-droisoquinolin-1(2H)-one]",4.6
14,"CCN(CC)c1ccc(Nc2nc(N)nc(-c3cccc(N4CCc5cc(C6CC6)cc(F)c5C4=O)c3CO)n2)cc1 [Example 245, 2-[3-(4-Amino-6-{[4-(di-ethylamino)phenyl]a-mino}-1,3,5-triazin-2-yl)-2-(hydroxymethyl)phenyl]-6-cyclopropyl-8-fluoro-3,4-dihydro-isoquinolin-1(2H)-one]",5.6
15,"CN(CCO)c1ccc(Nc2nc(N)nc(-c3cccc(N4CCc5cc(C6CC6)cc(F)c5C4=O)c3CO)n2)cc1 [Example 246, 2-{3-[4-Amino-6-({4-[(2-hydroxyethyl)(meth-yl)amino]phenyl}amino)-1,3,5-triazin-2-yl]-2-(hydroxymethyl)phe-nyl}-6-cyclopropyl-8-fluoro-3,4-dihydroiso-quinolin-1(2H)-one]",2.7

# Continued, values first:
row,IC50 [nM],SMILES
1,0.4,"CC(C)n1cc(Nc2nc(N)nc(-c3cccc(N4CCc5cc(C6CC6)cc(F)c5C4=O)c3CO)n2)cn1 [Example 222, 2-(3-{4-Amino-6-[(1-iso-propyl-1H-pyrazol-4-yl)amino]-1,3,5-tria-zin-2-yl}-2-(hydroxymeth-yl)phenyl)-6-cyclo-propyl-8-fluoro-3,4-di-hydroisoquinolin-1(2H)-one]"
2,6.6,"Cn1cc(Nc2nc(N)nc(-c3cccc(N4CCc5cc(C6CC6)cc(F)c5C4=O)c3CO)n2)cc1C(=O)O [Example 224, 4-({4-Amino-6-[3-(6-cyclo-propyl-8-fluoro-1-oxo-3,4-dihydroisoquinolin-2(1H)-yl)-2-(hydroxy-methyl)phenyl]-1,3,5-triazin-2-yl}ami-no)-1-methyl-1H-pyr-role-2-carboxylic acid]"
3,2.4,"Nc1nc(Nc2ccsc2)nc(-c2cccc(N3CCc4cc(C5CC5)cc(F)c4C3=O)c2CO)n1 [Example 228, 2-{3-[4-Amino-6-(thio-phen-3-ylamino)-1,3,5-triazin-2-yl]-2-(hy-droxymethyl)phenyl}-6-cyclopropyl-8-fluoro-3,4-dihydroisoquinolin-1(2H)-one]"
4,2.5,"CC(C)n1ccc(Nc2nc(N)nc(-c3cccc(N4CCc5cc(C6CC6)cc(F)c5C4=O)c3CO)n2)c1 [Example 229, 2-(3-{4-Amino-6-[(1-iso-propyl-1H-pyrrol-3-yl)amino]-1,3,5-triazin-2-yl}-2-(hydroxymeth-yl)phenyl)-6-cyclopro-pyl-8-fluoro-3,4-di-hydroisoquinolin-1(2H)-one]"
5,1.7,"CCn1ccc(Nc2nc(N)nc(-c3cccc(N4CCc5cc(C6CC6)cc(F)c5C4=O)c3CO)n2)c1 [Example 231, 2-(3-{4-Amino-6-[(1-eth-yl-1H-pyrrol-3-yl)ami-no]-1,3,5-triazin-2-yl}-2-(hydroxymethyl)phenyl)-6-cyclopropyl-8-fluoro-3,4-dihydro-isoquinolin-1(2H)-one]"
6,4.2,"CS(=O)(=O)n1cc(Nc2nc(N)nc(-c3cccc(N4CCc5cc(C6CC6)cc(F)c5C4=O)c3CO)n2)cn1 [Example 233, 2-[3-(4-Amino-6-{[1-(meth-ylsulfonyl)-1H-py-razol-4-yl]amino}-1,3,- 5-triazin-2-yl)-2-(hy-droxymethyl)phenyl]-6-cyclopropyl-8-fluoro-3,4-dihydroisoquino-lin-1(2H)-one]"
7,2.7,"Nc1nc(Nc2ccn(CCO)c2)nc(-c2cccc(N3CCc4cc(C5CC5)cc(F)c4C3=O)c2CO)n1 [Example 234, 2-[3-(4-Amino-6-{[1-(2-hydroxyethyl)-1H-pyrrol-3-yl]amino}-1,3,5-triazin-2-yl)-2-(hy-droxymethyl)phenyl]-6-cyclopropyl-8-fluoro-3,4-dihydroisoquinolin-1(2H)-one]"
8,0.9,"Nc1nc(Nc2cnn(C3CC3)c2)nc(-c2cccc(N3CCc4cc(C5CC5)cc(F)c4C3=O)c2CO)n1 [Example 238, 2-(3-{4-Amino-6-[(1-cyclo-propyl-1H-pyrazol-4-yl)amino]-1,3,5-tri-azin-2-yl}-2-(hydroxy-methyl)phenyl)-6-cyclo-propyl-8-fluoro-3,4-dihydroisoquinolin-1 (2H)-one]"
9,0.6,"CC(C)(C)n1cc(Nc2nc(N)nc(-c3cccc(N4CCc5cc(C6CC6)cc(F)c5C4=O)c3CO)n2)cn1 [Example 241, 2-[3-(4-Amino-6-{[1-(tert-butyl)-1H-pyrazol-4-yl]amino}-1,3,5-tri-azin-2-yl)-2-(hydroxy-methyl)phenyl]-6-cyclo-propyl-8-fluoro-3,4-dihydroisoquinolin-1(2H)-one]"
10,3.2,"Nc1nc(Nc2ccn(CC3CC3)c2)nc(-c2cccc(N3CCc4cc(C5CC5)cc(F)c4C3=O)c2CO)n1 [Example 248, 2-[3-(4-Amino-6-{[1-(cyclo-propylmethyl)-1H-pyrrol-3-yl]amino}-1,3,5-triazin-2-yl)-2-(hydroxymethyl)phenyl]-6-cyclopropyl-8-fluoro-3,4-dihydroisoquinolin-1(2H)-one]"
11,1,"Nc1nc(Nc2ccn([C@H]3CCOC3)c2)nc(-c2cccc(N3CCc4cc(C5CC5)cc(F)c4C3=O)c2CO)n1 [Example 249, (S)-2-[3-(4-Amino-6-{[1-(tetrahydrofuran-3-yl)-1H-pyrrol-3-yl]ami-no}-1,3,5-triazin-2-yl)-2-(hydroyxmethyl)phenyl]-6-cyclopropyl-8-fluoro-3,4-dihydro-isoquinolin-1(2H)-one]"
